According to ChEMBL document CHEMBL3751683, “Synthesis, colon-targeted studies and pharmacological evaluation of an anti-ulcerative colitis drug 4-Aminosalicylic acid-β-O-glucoside” (Eur J Med Chem, 2016):
In brackets after ≈: the same amount, converted by molar mass. Activity calls are given as the source filed them. No cut-off for these calls is given here.

Experiments:
[1] = Partition coefficient, log P of the compound at pH 7.4 by shake flask method; format: physicochemical; conditions: octanol/water
[2] = Aqueous solubility of the compound; format: physicochemical; conditions: buffer
Stomach [3] = test: Drug level in Sprague-Dawley rat stomach homogenate treated with sodium 4-amino-2-((2S,3R,4S,5S,6R)-3,4,5-trihydroxy-6-(hydroxymethyl)tetrahydro-2H- pyran-2-yloxy)benzoate at pH 4.5 by HPLC analysis; format: ADME, tissue-based; conditions: in vivo
Small intestine [4] = test: Drug level in Sprague-Dawley rat small intestine homogenate treated with sodium 4-amino-2-((2S,3R,4S,5S,6R)-3,4,5-trihydroxy-6-(hydroxymethyl)tetrahydro-2H- pyran-2-yloxy)benzoate at pH 6.8 by HPLC analysis; format: ADME, tissue-based; conditions: in vivo
[5] = Drug level in Sprague-Dawley rat cecum treated with sodium 4-amino-2-((2S,3R,4S,5S,6R)-3,4,5-trihydroxy-6-(hydroxymethyl)tetrahydro-2H- pyran-2-yloxy)benzoate at pH 7.4 after 12 hrs by HPLC analysis; format: ADME, tissue-based, Caecum; conditions: in vivo, pH 7.4, 12 h
Colon [6] = test: Drug level in Sprague-Dawley rat colon treated with sodium 4-amino-2-((2S,3R,4S,5S,6R)-3,4,5-trihydroxy-6-(hydroxymethyl)tetrahydro-2H- pyran-2-yloxy)benzoate at pH 7.4 after 12 hrs by HPLC analysis; format: ADME, tissue-based; conditions: in vivo, pH 7.4, 12 h
Stomach [7] = test: Drug level in colitis Sprague-Dawley rat model stomach homogenate treated with sodium 4-amino-2-((2S,3R,4S,5S,6R)-3,4,5-trihydroxy-6-(hydroxymethyl)tetrahydro-2H- pyran-2-yloxy)benzoate at pH 4.5 by HPLC analysis; format: ADME, tissue-based; conditions: in vivo
Small intestine [8] = test: Drug level in colitis Sprague-Dawley rat model small intestine homogenate treated with sodium 4-amino-2-((2S,3R,4S,5S,6R)-3,4,5-trihydroxy-6-(hydroxymethyl)tetrahydro-2H- pyran-2-yloxy)benzoate at pH 6.8 by HPLC analysis; format: ADME, tissue-based; conditions: in vivo
[9] = Drug level in colitis Sprague-Dawley rat model cecum treated with sodium 4-amino-2-((2S,3R,4S,5S,6R)-3,4,5-trihydroxy-6-(hydroxymethyl)tetrahydro-2H- pyran-2-yloxy)benzoate at pH 7.4 after 12 hrs by HPLC analysis; format: ADME, tissue-based, Caecum; conditions: in vivo, pH 7.4, 12 h
Colon [10] = test: Drug level in colitis Sprague-Dawley rat model colon treated with sodium 4-amino-2-((2S,3R,4S,5S,6R)-3,4,5-trihydroxy-6-(hydroxymethyl)tetrahydro-2H- pyran-2-yloxy)benzoate at pH 7.4 after 12 hrs by HPLC analysis; format: ADME, tissue-based; conditions: in vivo, pH 7.4, 12 h
Rattus norvegicus [11] = test: Antiulcerative colitis activity in TNBS-induced Sprague-Dawley rat colitis model assessed as decrease in severity of inflammation at 115 mg/kg qd for 6 consecutive days measured on 7th day; format: functional, organism-based
Rattus norvegicus [12] = test: Antiulcerative colitis activity in TNBS-induced Sprague-Dawley rat colitis model assessed as effect on TNBS-induced mucosal abscess at 115 mg/kg qd for 6 consecutive days by hematoxylin and eosin staining based light microscopic analysis; format: functional, organism-based
Rattus norvegicus [13] = test: Antiulcerative colitis activity in TNBS-induced Sprague-Dawley rat colitis model assessed as effect on TNBS-induced inflammatory infiltrate at 115 mg/kg qd for 6 consecutive days by hematoxylin and eosin staining based light microscopic analysis; format: functional, organism-based
Rattus norvegicus [14] = test: Antiulcerative colitis activity in TNBS-induced Sprague-Dawley rat colitis model assessed as myeloperoxidase activity at 115 mg/kg, qd for 6 consecutive days by spectrophotometry (reference value: 1.44 +/- 0.041 U/g); format: functional
Rattus norvegicus [15] = test: Antiulcerative colitis activity in TNBS-induced Sprague-Dawley rat colitis model assessed as decrease in severity of inflammation at 300 mg/kg qd for 6 consecutive days measured on 7th day; format: functional, organism-based
Rattus norvegicus [16] = test: Antiulcerative colitis activity in TNBS-induced Sprague-Dawley rat colitis model assessed as myeloperoxidase activity at 300 mg/kg, qd for 6 consecutive days by spectrophotometry (reference value: 1.44 +/- 0.041 U/g); format: functional
Rattus norvegicus [17] = test: Antiulcerative colitis activity in TNBS-induced Sprague-Dawley rat colitis model at 385 mg/kg, qd for 6 consecutive days measured after 12 days; format: functional, organism-based
Rattus norvegicus [18] = test: Antiulcerative colitis activity in TNBS-induced Sprague-Dawley rat colitis model drug administered for once daily for 6 consecutive days; format: functional, organism-based
Rattus norvegicus [19] = test: Antiulcerative colitis activity in TNBS-induced Sprague-Dawley rat colitis model assessed as decrease in colon/body weight ratio drug administered once daily for 6 consecutive days measured 24 hrs after last drug challenge; format: functional, organism-based
Rattus norvegicus [20] = test: Antiulcerative colitis activity in TNBS-induced Sprague-Dawley rat colitis model assessed as decrease in macroscopic injury ratio drug administered once daily for 6 consecutive days measured 24 hrs after last drug challenge; format: functional, organism-based
Rattus norvegicus [21] = test: Antiulcerative colitis activity in TNBS-induced Sprague-Dawley rat colitis model assessed as normal morphology of colon at 385 mg/kg qd for 6 consecutive days by hematoxylin and eosin staining based light microscopic analysis; format: functional, organism-based
Rattus norvegicus [22] = test: Antiulcerative colitis activity in TNBS-induced Sprague-Dawley rat colitis model assessed as normal morphology of colon at 255 mg/kg qd for 6 consecutive days by hematoxylin and eosin staining based light microscopic analysis; format: functional, organism-based
Rattus norvegicus [23] = test: Antiulcerative colitis activity in TNBS-induced Sprague-Dawley rat colitis model assessed as myeloperoxidase activity at 385 mg/kg, qd for 6 consecutive days by spectrophotometry (reference value: 1.44 +/- 0.041 U/g); format: functional
Rattus norvegicus [24] = test: Antiulcerative colitis activity in TNBS-induced Sprague-Dawley rat colitis model assessed as effect on TNBS-induced mucosal abscess at 128 mg/kg qd for 6 consecutive days by hematoxylin and eosin staining based light microscopic analysis; format: functional, organism-based
[25] = Stability of compound in isotonic phosphate buffer at pH 1.2 after 12 hrs by HPLC analysis; format: physicochemical; conditions: pH 1.2, 12 h
[26] = Stability of compound in isotonic phosphate buffer at pH 6.8 after 12 hrs by HPLC analysis; format: physicochemical; conditions: pH 6.8, 12 h
[27] = Stability of compound in isotonic phosphate buffer at pH 7.4 after 12 hrs by HPLC analysis; format: physicochemical; conditions: pH 7.4, 12 h
Rattus norvegicus [28] = test: Antiulcerative colitis activity in TNBS-induced Sprague-Dawley rat colitis model assessed as decrease in severity of inflammation at 385 to 128 mg/kg qd for 6 consecutive days measured on 7th day; format: functional, organism-based
Rattus norvegicus [29] = test: Antiulcerative colitis activity in TNBS-induced Sprague-Dawley rat colitis model assessed as myeloperoxidase activity at 255 mg/kg, qd for 6 consecutive days by spectrophotometry (reference value: 1.44 +/- 0.041 U/g); format: functional

In the case of `Nc1ccc(C(=O)O)c(O)c1` [AMINOSALICYLIC ACID], the logD [1] is reported as 0.901, the solubility [2] is reported as 1.43 mg/mL (≈ 9.34 mM) and the Drug metabolism (Stomach [3]) is reported as “metabolite_detected”. The Drug metabolism (Small intestine [4]) was “metabolite_detected”, the Drug metabolism [5] was “metabolite_detected” and the Drug metabolism (Colon [6]) was “metabolite_detected”. For the same compound, the Drug metabolism (Stomach [7]) was “metabolite_detected”, the Drug metabolism (Small intestine [8]) was “metabolite_detected” and the Drug metabolism [9] was “metabolite_detected”. For the same compound, the Drug metabolism (Colon [10]) was “metabolite_detected”, the inhibition (Rattus norvegicus [11]) was “Active” and the Activity (Rattus norvegicus [12]) was “inactive”. The Activity (Rattus norvegicus [13]) was “inactive” and the Activity (Rattus norvegicus [14]) was 0.82 U/g.
With `O=C(O)c1cc(/N=N/c2ccc(S(=O)(=O)Nc3ccccn3)cc2)ccc1O` [SULFASALAZINE] the inhibition (Rattus norvegicus [15]) was “Active” and the Activity (Rattus norvegicus [16]) was 0.58 U/g.
For `Nc1ccc(O)c(C(=O)O)c1`, the inhibition (Rattus norvegicus [11]) was “Active”, the Activity (Rattus norvegicus [12]) was “inactive” and the Activity (Rattus norvegicus [13]) was “inactive”.
In the case of `Nc1ccc(C(=O)[O-])c(O[C@@H]2O[C@H](CO)[C@@H](O)[C@H](O)[C@H]2O)c1.[Na+]`, the logD [1] is reported as -0.44, the solubility [2] is reported as 635 mg/mL and the Activity (Rattus norvegicus [17]) is reported as “Active”. For the same compound, the Activity (Rattus norvegicus [18]) was “Dose-dependent effect”, the inhibition (Rattus norvegicus [19]) was “Dose-dependent effect” and the inhibition (Rattus norvegicus [20]) was “Dose-dependent effect”. The Activity (Rattus norvegicus [21]) was “Active”, the Activity (Rattus norvegicus [22]) was “Active” and the Activity (Rattus norvegicus [23]) was 0.4 U/g. The Activity (Rattus norvegicus [24]) was “inactive”, the Stability [25] was “Stable” and the Stability [26] was “Stable”. The Stability [27] was “Stable”, the inhibition (Rattus norvegicus [28]) was “Active” and the Activity (Rattus norvegicus [29]) was 0.51 U/g.
